Measurements from patent US20170355705A1 (GlaxoSmithKline Intellectual Property (No.2) Limited, priority 2014, published 2017).

molecular target: T1, SIRT1 (Homo sapiens, UniProt Q96EB6); test: Trp mass spectrometry assay of SIRT1 activity (EC1.5, percent maximum activation); assay type: biochemical; settings: Trp mass spectrometry assay; 0.5 μM peptide substrate, 120 μM βNAD+, 10 nM SIRT1, 25 minutes at 25° C.
T1 sequence (Q96EB6 1-747): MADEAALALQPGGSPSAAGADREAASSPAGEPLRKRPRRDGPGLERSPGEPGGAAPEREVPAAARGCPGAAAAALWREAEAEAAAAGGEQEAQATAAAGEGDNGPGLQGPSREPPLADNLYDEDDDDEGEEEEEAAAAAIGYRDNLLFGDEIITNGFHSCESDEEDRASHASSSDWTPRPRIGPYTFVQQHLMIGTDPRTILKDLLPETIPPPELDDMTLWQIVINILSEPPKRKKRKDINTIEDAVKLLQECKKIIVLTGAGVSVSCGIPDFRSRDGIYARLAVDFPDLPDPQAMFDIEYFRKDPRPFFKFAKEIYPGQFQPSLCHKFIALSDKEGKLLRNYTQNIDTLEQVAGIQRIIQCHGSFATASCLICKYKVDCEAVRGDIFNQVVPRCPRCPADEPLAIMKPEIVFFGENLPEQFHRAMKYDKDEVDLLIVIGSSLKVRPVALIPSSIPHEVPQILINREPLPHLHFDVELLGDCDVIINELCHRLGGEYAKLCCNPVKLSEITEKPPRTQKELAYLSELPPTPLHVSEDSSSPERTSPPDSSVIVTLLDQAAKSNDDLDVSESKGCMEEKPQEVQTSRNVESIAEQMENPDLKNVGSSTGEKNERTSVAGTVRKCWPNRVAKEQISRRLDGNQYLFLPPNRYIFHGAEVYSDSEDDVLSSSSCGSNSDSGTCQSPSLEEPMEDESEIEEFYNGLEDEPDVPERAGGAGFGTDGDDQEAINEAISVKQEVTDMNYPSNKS
How it was run: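 N-terminal His-tagged human SIRT1, expressed in BL21(DE3) and purified, was incubated 25 min with an acetylated Trp peptide and NAD plus test compound at varying concentrations, then quenched with formic acid. OAADPR or deacetylated peptide was quantified by mass spectrometry versus compound-free control; EC1.5 is the concentration giving 50% activity increase, with percent maximum activation.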

Row | Compound | TRP Activity (EC1.5, concentration of test compound that results in 150% activation of SIRT1) | TRP MAX RESP (percent maximum fold activation)
1 | Cc1cc(-c2ccc3c(n2)N(C(=O)Nc2cnccn2)[C@H]2CCN3C2)c(F)cn1 [Example 217, (4S)-7-(5-fluoro-2-methylpyridin-4-yl)-N-(pyrazin-2-yl)-3,4-dihydro-1,4-methanopyrido[2,3-b][1,4]diazepine-5(2H)-carboxamide] | B (EC1.5 1-25 μM) | A (Fold activation ≧150%)
2 | O=C(Nc1cnccn1)N1c2nc(-c3ccnc(CO)c3)ccc2N2CC[C@H]1C2 [Example 218, (4S)-7-(2-(Hydroxymethyl)pyridin-4-yl)-N-(pyrazin-2-yl)-3,4-dihydro-1,4 methanopyrido[2,3-b][1,4]diazepine-5(2H)-carboxamide] | B (EC1.5 1-25 μM) | A (Fold activation ≧150%)
3 | N#Cc1ccc(-c2ccc3c(n2)N(C(=O)Nc2cnccn2)[C@H]2CCN3C2)cn1 [Example 219, (4S)-7-(6-cyanopyridin-3-yl)-N-(pyrazin-2-yl)-3,4-dihydro-1,4-methanopyrido[2,3-b][1,4]diazepine-5(2H)-carboxamide] | C (EC1.5>25 μM) | B (Fold Activation <150%)
4 | CCc1cnc(NC(=O)N2c3nc(-c4ccc(C)nc4)ccc3N3CC[C@H]2C3)cn1 [Example 220, (4S)-N-(5-ethylpyrazin-2-yl)-7-(6-methylpyridin-3-yl)-3,4-dihydro-1,4-methanopyrido[2,3-b][1,4]diazepine-5(2H)-carboxamide] | B (EC1.5 1-25 μM) | A (Fold activation ≧150%)
5 | Cc1cc(-c2ccc3c(n2)N(C(=O)Nc2cncc(OC(C)C)n2)[C@H]2CCN3C2)ccn1 [Example 221, (4S)-N-(6-isopropoxypyrazin-2-yl)-7-(2-methylpyridin-4-yl)-3,4-dihydro-1,4-methanopyrido[2,3-b][1,4]diazepine-5(2H)-carboxamide] | A (EC1.5<1 μM) | A (Fold activation ≧150%)
6 | Cc1cc(-c2ccc3c(n2)N(C(=O)Nc2cnccn2)[C@H]2CCN3C2)cnc1C#N [Example 222, (4S)-7-(6-cyano-5-methylpyridin-3-yl)-N-(pyrazin-2-yl)-3,4-dihydro-1,4-methanopyrido[2,3-b][1,4]diazepine-5(2H)-carboxamide] | B (EC1.5 1-25 μM) | A (Fold activation ≧150%)
7 | Cc1cc(-c2ccc3c(n2)N(C(=O)Nc2cnccn2)[C@H]2CCN3C2)cc(C(F)(F)F)n1 [Example 223, (4S)-7-(2-methyl-6-(trifluoromethyl)pyridin-4-yl)-N-(pyrazin-2-yl)-3,4-dihydro-1,4-methanopyrido[2,3-b][1,4]diazepine-5(2H)-carboxamide] | A (EC1.5<1 μM) | A (Fold activation ≧150%)
8 | O=C(Nc1cccnc1)N1c2nc(-c3ccc(C(F)(F)F)nc3)ccc2N2CC[C@H]1C2 [Example 224, (4S)-N-(pyridin-3-yl)-7-(6-(trifluoromethyl)pyridin-3-yl)-3,4-dihydro-1,4-methanopyrido[2,3-b][1,4]diazepine-5(2H)-carboxamide] | B (EC1.5 1-25 μM) | A (Fold activation ≧150%)
9 | CCn1cc(-c2ccc3c(n2)N(C(=O)Nc2cnccn2)[C@H]2CCN3C2)cn1 [Example 225, (4S)-7-(1-ethyl-1H-pyrazol-4-yl)-N-(pyrazin-2-yl)-3,4-dihydro-1,4-methanopyrido[2,3-b][1,4]diazepine-5(2H)-carboxamide] | B (EC1.5 1-25 μM) | A (Fold activation ≧150%)
10 | O=C(Nc1cnccn1)N1c2nc(-c3ccc(OC(F)F)nc3)ccc2N2CC[C@H]1C2 [Example 226, (4S)-7-(6-(difluoromethoxy)pyridin-3-yl)-N-(pyrazin-2-yl)-3,4-dihydro-1,4-methanopyrido[2,3-b][1,4]diazepine-5(2H)-carboxamide] | B (EC1.5 1-25 μM) | A (Fold activation ≧150%)
11 | Cc1ccc(-c2ccc3c(n2)N(C(=O)Nc2ccnc(O[C@H]4CCOC4)n2)[C@H]2CCN3C2)cn1 [Example 227, (4S)-7-(6-methylpyridin-3-yl)-N-(2-(((S)-tetrahydrofuran-3-yl)oxy)pyrimidin-4-yl)-3,4-dihydro-1,4-methanopyrido[2,3-b][1,4]diazepine-5(2H)-carboxamide] | B (EC1.5 1-25 μM) | A (Fold activation ≧150%)
12 | Cc1cc(-c2ccc3c(n2)N(C(=O)N2CCO[C@H](C)C2)[C@H]2CCN3C2)ccn1.Cl [Example 232, ((R)-2-methylmorpholino)((4S)-7-(2-methylpyridin-4-yl)-3,4-dihydro-1,4-methanopyrido[2,3-b][1,4]diazepin-5(2H)-yl)methanone hydrochloride] | C (EC1.5>25 μM) | B (Fold Activation <150%)
13 | Cn1ccc(-c2ccc3c(n2)N(C(=O)Nc2cccnc2)[C@H]2CCN3C2)cc1=O [Example 233, (4S)-7-(1-methyl-2-oxo-1,2-dihydropyridin-4-yl)-N-(pyridin-3-yl)-3,4-dihydro-1,4-methanopyrido[2,3-b][1,4]diazepine-5(2H)-carboxamide] | B (EC1.5 1-25 μM) | A (Fold activation ≧150%)
14 | Cc1cc(-c2ccc3c(n2)N(C(=O)N2CCO[C@@H](C)C2)[C@H]2CCN3C2)ccn1.Cl [Example 234, ((S)-2-methylmorpholino)((4S)-7-(2-methylpyridin-4-yl)-3,4-dihydro-1,4-methanopyrido[2,3-b][1,4]diazepin-5(2H)-yl)methanone hydrochloride] | C (EC1.5>25 μM) | B (Fold Activation <150%)
15 | Cc1cc(NC(=O)N2c3nc(-c4ccnc(C)c4)ccc3N3CC[C@H]2C3)ccn1 [Example 235, (4S)-N-7-bis(2-methylpyridin-4-yl)-3,4-dihydro-1,4-methanopyrido[2,3-b][1,4]diazepine-5(2H)-carboxamide] | B (EC1.5 1-25 μM) | A (Fold activation ≧150%)
